Calls of active or inactive are those of the source. The calls are words filed in the database; no cut-off is given here.
Legend:
CCRF-CEM = assay: Cytotoxicity against human CEM cells assessed as growth inhibition after 72 hrs by MTT assay; type: functional, cell-based
SW1990 = assay: Cytotoxicity against human SW1990 cells assessed as growth inhibition after 72 hrs by MTT assay; type: functional, cell-based; settings: SW1990, 72 h
Bel-7402 [1] = assay: Cytotoxicity against human Bel7402 cells assessed as growth inhibition after 72 hrs by MTT assay; type: functional, cell-based; settings: Bel-7402, 72 h
MCF7 [2] = assay: Ratio of combretastatin A-4 IC50 to compound IC50 for human MCF7 cells; type: functional
HCT-116 = assay: Cytotoxicity against human HCT116 cells assessed as growth inhibition after 72 hrs by MTT assay; type: functional, cell-based; settings: HCT-116, 72 h
SMMC-7721 = assay: Cytotoxicity against human SMMC7721 cells assessed as growth inhibition after 72 hrs by MTT assay; type: functional, cell-based; settings: SMMC-7721, 72 h
MCF7 [3] = assay: Cytotoxicity against human MCF7 cells assessed as growth inhibition after 72 hrs by MTT assay; type: functional, cell-based; settings: MCF7, 72 h
MCF7 [4] = assay: Cell cycle arrest in human MCF7 cells assessed as accumulation at G2/M phase at 0.02 uM after 24 hrs by propidium iodide staining-based flow cytometric analysis; type: functional
Bel-7402 [5] = assay: Ratio of combretastatin A-4 IC50 to compound IC50 for human Bel7402 cells; type: functional
HepG2 = assay: Cytotoxicity against human HepG2 cells assessed as growth inhibition after 72 hrs by MTT assay; type: functional, cell-based; settings: HepG2, 72 h
MCF7 [6] = assay: Cell cycle arrest in human MCF7 cells assessed as accumulation at G2/M phase after 24 hrs by propidium iodide staining-based flow cytometric analysis; type: functional

Q: Which IC50 (CCRF-CEM) does the source give for `COc1ccc(-c2c(-c3cc(OC)c(OC)c(OC)c3)c(=O)c2=O)cc1OC(C)=O` here?
A: 1.8 nM

Q: With `COc1ccc(-c2c(-c3cc(OC)c(OC)c(OC)c3)c(=O)c2=O)cc1[N+](=O)[O-]` as the compound, how does the IC50 (CCRF-CEM) read?
A: 12200 nM

Q: Which IC50 (CCRF-CEM) does the source give for `COc1ccc(-c2c(-c3cc(OC)c(OC)c(OC)c3)c(=O)c2=O)c(OC)c1` here?
A: 1770 nM

Q: How did the IC50 (SW1990) turn out when `COc1ccc(-c2c(-c3cc(OC)c(OC)c(OC)c3)c(=O)c2=O)cc1O` was run?
A: 245 nM

Q: What about the IC50 (Bel-7402 [1]) of the same compound?
A: 309 nM

Q: What about the “Ratio IC50” value (MCF7 [2]) of the same compound?
A: 5

Q: And the IC50 (CCRF-CEM)?
A: 1.7 nM

Q: What about the IC50 (HCT-116) of the same compound?
A: 5 nM

Q: And the IC50 (SMMC-7721)?
A: 1520 nM

Q: And the IC50 (MCF7 [3])?
A: 6 nM

Q: And the Activity (MCF7 [4])?
A: Active

Q: What about the “Ratio IC50” value (Bel-7402 [5]) of the same compound?
A: 5

Q: And the IC50 (HepG2)?
A: 14 nM

Q: How did the IC50 (CCRF-CEM) turn out when `COc1ccc(-c2c(-c3ccc(OC)cc3OC)c(=O)c2=O)cc1` was run?
A: 1510 nM

Q: How did the IC50 (CCRF-CEM) turn out when `COc1ccc(-c2c(-c3ccc(OC)c(OC)c3)c(=O)c2=O)cc1` was run?
A: 12700 nM

Q: Which results are given for `COc1ccc(-c2c(-c3cc(OC)c(OC)c(OC)c3)c(=O)c2=O)cc1N`?
A: IC50 (SW1990): 1770 nM; IC50 (Bel-7402 [1]): 14 nM; IC50 (CCRF-CEM): 1.4 nM; Activity (MCF7 [6]): Active; IC50 (HCT-116): 5 nM; IC50 (SMMC-7721): 190 nM; IC50 (MCF7 [3]): 164 nM; Ratio IC50 (Bel-7402 [5]): 122; IC50 (HepG2): 5 nM

Q: Which results are given for `COc1ccc(/C=C\c2cc(OC)c(OC)c(OC)c2)cc1O` [COMBRETASTATIN A4]?
A: IC50 (CCRF-CEM): 1.6 nM; IC50 (MCF7 [3]): 29 nM

Q: For `COc1ccc(-c2c(-c3cc(OC)c(OC)c(OC)c3)c(=O)c2=O)cc1OC`, which IC50 (CCRF-CEM) is on record?
A: 210 nM

Q: `COc1cc(-c2c(-c3ccc4[nH]ccc4c3)c(=O)c2=O)cc(OC)c1OC` was tested. Which IC50 (Bel-7402 [1]) did it give?
A: 1500 nM

Q: What about the IC50 (CCRF-CEM) of the same compound?
A: 15.4 nM

Q: And the IC50 (SMMC-7721)?
A: 646 nM

Q: What about the IC50 (HepG2) of the same compound?
A: 6 nM

Q: `COc1ccc(-c2c(-c3c(OC)cc(OC)cc3OC)c(=O)c2=O)cc1` was tested. Which IC50 (CCRF-CEM) did it give?
A: 850 nM

Q: What does the source list for `COc1ccc(-c2c(-c3cc(OC)c(OC)c(OC)c3)c(=O)c2=O)cc1F`?
A: IC50 (SW1990): 27 nM; IC50 (Bel-7402 [1]): 13 nM; IC50 (CCRF-CEM): 11.5 nM; IC50 (HCT-116): 81 nM; IC50 (SMMC-7721): 176 nM; IC50 (MCF7 [3]): 5 nM; IC50 (HepG2): 105 nM

Q: How did the IC50 (CCRF-CEM) turn out when `COc1ccc(-c2c(-c3ccc(OC)cc3)c(=O)c2=O)cc1` was run?
A: > 20000 nM

Q: `COc1ccc(-c2c(-c3ccc(OC)c(OC)c3OC)c(=O)c2=O)cc1` was tested. Which IC50 (CCRF-CEM) did it give?
A: 2480 nM

Q: Which IC50 (CCRF-CEM) does the source give for `COc1cc(-c2c(-c3ccccc3)c(=O)c2=O)cc(OC)c1OC` here?
A: 16100 nM

Q: How did the IC50 (CCRF-CEM) turn out when `COc1cc(-c2c(-c3cc(OC)c(OC)c(OC)c3)c(=O)c2=O)cc(OC)c1OC` was run?
A: > 20000 nM

Q: With `COc1ccc(-c2c(-c3cc(OC)c(OC)c(OC)c3)c(=O)c2=O)cc1Cl` as the compound, how does the IC50 (CCRF-CEM) read?
A: 136 nM

Q: Which results are given for `COc1cc(-c2c(-c3ccc4cc[nH]c4c3)c(=O)c2=O)cc(OC)c1OC`?
A: IC50 (Bel-7402 [1]): 3620 nM; IC50 (CCRF-CEM): 6.6 nM; IC50 (SMMC-7721): 2540 nM; IC50 (HepG2): 6 nM

Q: For `COc1ccc(-c2c(-c3cc(OC)c(OC)c(OC)c3)c(=O)c2=O)cc1`, which IC50 (CCRF-CEM) is on record?
A: 16 nM
